PubChem BioAssay AID248 (DTP/NCI, 2004)
Several values for one entry are separate records, joined by “and”; a condition that tells them apart may be missing. Equal values may be shown once. Toxic doses and inconclusive results are not listed. Cut-off read from the data, not from the text of the source: active = T/C of 150% or more; inactive = T/C below 125%.

Tested on: L1210 leukemia ip in BDF1 mice, survival T/C
Assay: NCI In Vivo Anticancer Drug Screen. Data for tumor model L1210 Leukemia (intraperitoneal) in B6D2F1 (BDF1) mice
Conditions: higher = longer survival
Method in brief: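 Transplanted-tumor mice were given test agent; controls received vehicle only. Survival readings from the two groups were divided (treated over control).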

[1] = endpoint: mean survival time, dose: 100.0 mg/kg/injection, schedule: Q04DX003 (ip), vehicle: Klucel (hydroxypropylcellulose) (HPC)
[2] = endpoint: mean survival time, dose: 200.0 mg/kg/injection, schedule: Q04DX003 (ip), vehicle: Klucel (hydroxypropylcellulose) (HPC)
[3] = endpoint: mean survival time, dose: 400.0 mg/kg/injection, schedule: Q04DX003 (ip), vehicle: Klucel (hydroxypropylcellulose) (HPC)
[4] = endpoint: mean survival time, dose: 100.0 mg/kg/injection, schedule: Q04DX003 (ip), vehicle: saline with Tween-80
[5] = endpoint: mean survival time, dose: 25.0 mg/kg/injection, schedule: Q04DX003 (ip), vehicle: saline
[6] = endpoint: mean survival time, dose: 100.0 mg/kg/injection, schedule: Q04DX002 (ip), vehicle: saline with Tween-80
[7] = endpoint: mean survival time, dose: 200.0 mg/kg/injection, schedule: Q04DX002 (ip), vehicle: saline with Tween-80
[8] = endpoint: mean survival time, dose: 400.0 mg/kg/injection, schedule: Q04DX002 (ip), vehicle: saline with Tween-80
[9] = endpoint: mean survival time, dose: 6.25 mg/kg/injection, schedule: Q04DX003 (ip), vehicle: saline with Tween-80
[10] = endpoint: mean survival time, dose: 12.5 mg/kg/injection, schedule: Q04DX003 (ip), vehicle: saline with Tween-80
[11] = endpoint: mean survival time, dose: 100.0 mg/kg/injection, schedule: Q01DX001 (ip), vehicle: saline with Tween-80
[12] = endpoint: mean survival time, dose: 200.0 mg/kg/injection, schedule: Q04DX003 (ip), vehicle: saline with Tween-80
[13] = endpoint: mean survival time, dose: 400.0 mg/kg/injection, schedule: Q04DX003 (ip), vehicle: saline with Tween-80

Measured: T/C

Nc1ccc2[nH]c3ccccc3c2c1
inactive: endpoint: mean survival time, dose: 100.0 mg/kg/injection, schedule: Q01DX009 (ip), vehicle: Klucel (hydroxypropylcellulose) (HPC) 95 % of control | [1] 104 % of control | endpoint: mean survival time, dose: 200.0 mg/kg/injection, schedule: Q01DX009 (ip), vehicle: Klucel (hydroxypropylcellulose) (HPC) 95 % of control | [2] 91 % of control | endpoint: mean survival time, dose: 400.0 mg/kg/injection, schedule: Q01DX009 (ip), vehicle: Klucel (hydroxypropylcellulose) (HPC) 92 % of control | [3] 94 % of control

C[Si](C)(C)Oc1ccccc1[Si](C)(C)c1ccccc1
inactive: [1] 101 % of control | [2] 98 % of control | [3] 102 % of control

COc1ccc(O)c(Br)c1
inactive: endpoint: mean survival time, dose: 100.0 mg/kg/injection, schedule: Q01DX009 (ip), vehicle: other 97 % of control | endpoint: mean survival time, dose: 100.0 mg/kg/injection, schedule: Q04DX003 (ip), vehicle: other 94 % of control | endpoint: mean survival time, dose: 200.0 mg/kg/injection, schedule: Q01DX009 (ip), vehicle: other 103 % of control | endpoint: mean survival time, dose: 200.0 mg/kg/injection, schedule: Q04DX003 (ip), vehicle: other 96 % of control | endpoint: mean survival time, dose: 400.0 mg/kg/injection, schedule: Q04DX003 (ip), vehicle: other 92 % of control

COc1ccc(/C=c2\[nH]c(=O)/c(=C/c3ccc(OC)c(OC)c3)[nH]c2=O)cc1OC
inactive: endpoint: mean survival time, dose: 25.0 mg/kg/injection, schedule: Q04DX003 (ip), vehicle: saline with Tween-80 92 % of control | endpoint: mean survival time, dose: 50.0 mg/kg/injection, schedule: Q04DX003 (ip), vehicle: saline with Tween-80 89 % of control | [4] 86 % of control

Cc1cc(=O)c2ccccc2[nH]1
inactive: [5] 94 % of control | endpoint: mean survival time, dose: 50.0 mg/kg/injection, schedule: Q04DX003 (ip), vehicle: saline 100 % of control | endpoint: mean survival time, dose: 100.0 mg/kg/injection, schedule: Q04DX003 (ip), vehicle: saline 94 % of control and 96 % of control

CC(C(=O)O)(c1ccccc1)c1ccccc1
inactive: endpoint: mean survival time, dose: 100.0 mg/kg/injection, schedule: Q04DX002 (ip), vehicle: gum acacia 101 % of control | endpoint: mean survival time, dose: 200.0 mg/kg/injection, schedule: Q04DX002 (ip), vehicle: gum acacia 96 % of control | endpoint: mean survival time, dose: 400.0 mg/kg/injection, schedule: Q04DX002 (ip), vehicle: gum acacia 96 % of control

S=C(NC1CCCCC1)NC1CC2C=CC1C2 (configuration not stated)
inactive: [6] 90 % of control | [7] 93 % of control | [8] 93 % of control

N/N=C(\N)c1cn(C2OC(CO)C(O)C2O)c2ncnc(N)c12 (configuration not stated)
inactive: endpoint: mean survival time, dose: 5.0 mg/kg/injection, schedule: Q01DX001 (ip), vehicle: carboxymethylcellulose (CMC) 109 % of control

O=C1NC2CCC(NC(=O)N1c1ccccc1)C1=C2C1
inactive: endpoint: mean survival time, dose: 3.13 mg/kg/injection, schedule: Q01DX009 (ip), vehicle: saline with Tween-80 94 % of control | endpoint: mean survival time, dose: 6.25 mg/kg/injection, schedule: Q01DX009 (ip), vehicle: saline with Tween-80 90 % of control | [9] 106 % of control | endpoint: mean survival time, dose: 12.5 mg/kg/injection, schedule: Q01DX009 (ip), vehicle: saline with Tween-80 97 % of control | [10] 94 % of control

COc1cc2c(cc1OC)-c1cc3cc(OC)c(OC)cc3c(CCC(=O)O)[n+]1CC2
inactive: endpoint: mean survival time, dose: 20.0 mg/kg/injection, schedule: Q04DX002 (ip), vehicle: Klucel (hydroxypropylcellulose) (HPC) 95 % of control | endpoint: mean survival time, dose: 40.0 mg/kg/injection, schedule: Q04DX002 (ip), vehicle: Klucel (hydroxypropylcellulose) (HPC) 88 % of control | endpoint: mean survival time, dose: 80.0 mg/kg/injection, schedule: Q04DX002 (ip), vehicle: Klucel (hydroxypropylcellulose) (HPC) 109 % of control

[Cl][Sn]([Cl])([c]1ccccc1)[c]1ccccc1.c1ccc(-c2nnc(-c3ccccn3)nc2-c2ccccc2)cc1
inactive: endpoint: mean survival time, dose: 3.12 mg/kg/injection, schedule: Q04DX003 (ip), vehicle: saline with Tween-80 96 % of control | [9] 104 % of control | endpoint: mean survival time, dose: 6.25 mg/kg/injection, schedule: Q04DX003 (ip), vehicle: saline 93 % of control | [10] 112 % of control | endpoint: mean survival time, dose: 12.5 mg/kg/injection, schedule: Q04DX003 (ip), vehicle: saline 98 % of control | [5] 120 % of control

CCN(CC)Cc1cc(O)c(CN(CC)CC)cc1O
inactive: endpoint: mean survival time, dose: 25.0 mg/kg/injection, schedule: Q01DX001 (ip), vehicle: saline with Tween-80 93 % of control | endpoint: mean survival time, dose: 50.0 mg/kg/injection, schedule: Q01DX001 (ip), vehicle: saline with Tween-80 103 % of control | [11] 96 % of control

CCC1(C)CCC2(C)C(CCC3C(C)(CO)CCCC32O)C1 (configuration not stated)
inactive: endpoint: mean survival time, dose: 12.5 mg/kg/injection, schedule: Q04DX002 (ip), vehicle: saline with Tween-80 96 % of control | endpoint: mean survival time, dose: 25.0 mg/kg/injection, schedule: Q04DX002 (ip), vehicle: saline with Tween-80 96 % of control | endpoint: mean survival time, dose: 50.0 mg/kg/injection, schedule: Q04DX002 (ip), vehicle: saline with Tween-80 96 % of control

CC(=O)OC1C(O)C(C)OC(OC2C(OC(=O)C3CCC4C(C3)OC3(CC(OC(=O)/C=C/c5ccccc5)C(C)CO3)C43CO3)OC(C)C(O)C2OC(C)=O)C1O (configuration not stated)
inactive: endpoint: median survival time, dose: 0.5 mg/kg/injection, schedule: Q01DX009 (ip), vehicle: distilled water + Tween-80 92 % of control | endpoint: median survival time, dose: 1.0 mg/kg/injection, schedule: Q01DX009 (ip), vehicle: distilled water + Tween-80 95 % of control | endpoint: median survival time, dose: 2.0 mg/kg/injection, schedule: Q01DX009 (ip), vehicle: distilled water + Tween-80 95 % of control | endpoint: median survival time, dose: 4.0 mg/kg/injection, schedule: Q01DX009 (ip), vehicle: distilled water + Tween-80 104 % of control | endpoint: median survival time, dose: 8.0 mg/kg/injection, schedule: Q01DX009 (ip), vehicle: distilled water + Tween-80 107 % of control | endpoint: median survival time, dose: 16.0 mg/kg/injection, schedule: Q01DX009 (ip), vehicle: distilled water + Tween-80 115 % of control | endpoint: median survival time, dose: 32.0 mg/kg/injection, schedule: Q01DX009 (ip), vehicle: distilled water + Tween-80 104 % of control

Cc1ccc([N+](=O)[O-])cc1NC(=O)Sc1ccccc1O
inactive: [12] 92 % of control | [13] 90 % of control

CC(=O)OC1=CCC(C(C)(C)C)CC1 (configuration not stated)
inactive: endpoint: mean survival time, dose: 12.5 mg/kg/injection, schedule: Q01DX009 (ip), vehicle: Klucel (hydroxypropylcellulose) (HPC) 107 % of control | endpoint: mean survival time, dose: 12.5 mg/kg/injection, schedule: Q04DX003 (ip), vehicle: Klucel (hydroxypropylcellulose) (HPC) 96 % of control | endpoint: mean survival time, dose: 25.0 mg/kg/injection, schedule: Q01DX009 (ip), vehicle: Klucel (hydroxypropylcellulose) (HPC) 93 % of control | endpoint: mean survival time, dose: 25.0 mg/kg/injection, schedule: Q04DX003 (ip), vehicle: Klucel (hydroxypropylcellulose) (HPC) 102 % of control | endpoint: mean survival time, dose: 50.0 mg/kg/injection, schedule: Q04DX003 (ip), vehicle: Klucel (hydroxypropylcellulose) (HPC) 106 % of control

O=C(Nc1cccnc1)c1cccc([N+](=O)[O-])c1
inactive: endpoint: mean survival time, dose: 200.0 mg/kg/injection, schedule: Q04DX002 (ip), vehicle: Klucel (hydroxypropylcellulose) (HPC) 108 % of control | endpoint: mean survival time, dose: 400.0 mg/kg/injection, schedule: Q04DX002 (ip), vehicle: Klucel (hydroxypropylcellulose) (HPC) 97 % of control

O=C1c2ccccc2-c2cc(Br)c(NC(=O)C(Cl)Cl)cc21
inactive: endpoint: mean survival time, dose: 100.0 mg/kg/injection, schedule: Q01DX001 (ip), vehicle: carboxymethylcellulose (CMC) 115 % of control | endpoint: mean survival time, dose: 200.0 mg/kg/injection, schedule: Q01DX001 (ip), vehicle: carboxymethylcellulose (CMC) 98 % of control | endpoint: mean survival time, dose: 400.0 mg/kg/injection, schedule: Q01DX001 (ip), vehicle: carboxymethylcellulose (CMC) 98 % of control

CC(C)C(=O)Nc1ccc(S(=O)(=O)NCCO)cc1
inactive: [4] 97 % of control | [12] 92 % of control | [13] 92 % of control

COc1ccc([N+](=O)[O-])cc1NS(=O)(=O)c1c(C)cc(C)cc1C
inactive: endpoint: mean survival time, dose: 50.0 mg/kg/injection, schedule: Q01DX009 (ip), vehicle: saline with Tween-80 94 % of control and 88 % of control | [11] 92 % of control | endpoint: mean survival time, dose: 100.0 mg/kg/injection, schedule: Q01DX009 (ip), vehicle: saline with Tween-80 94 % of control and 97 % of control | [6] 107 % of control | [4] 98 % of control | endpoint: mean survival time, dose: 200.0 mg/kg/injection, schedule: Q01DX001 (ip), vehicle: saline with Tween-80 104 % of control | endpoint: mean survival time, dose: 200.0 mg/kg/injection, schedule: Q01DX009 (ip), vehicle: saline with Tween-80 97 % of control and 103 % of control | [7] 103 % of control | [12] 97 % of control | endpoint: mean survival time, dose: 400.0 mg/kg/injection, schedule: Q01DX001 (ip), vehicle: saline with Tween-80 92 % of control | endpoint: mean survival time, dose: 400.0 mg/kg/injection, schedule: Q01DX009 (ip), vehicle: saline with Tween-80 97 % of control | [8] 103 % of control | [13] 93 % of control
